assay: gradient 5% acetonitrile 3 min, to 50% in 2 min, to 85% in 15 min, held 3 min, 100 µL/min; settings: column: Zorbax Extend-C18 2.1 x 50 mm; eluents: water / acetonitrile, 0.1% formic acid
Outline: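 Retention times come from adduct peaks that were picked computationally and then checked by hand. The standards, pure and pooled in mixtures of ~100 molecules, were run on a Zorbax Extend-C18 column (2.1 × 50 mm, 1.8 μm) at 100 μL/min with water and acetonitrile, each with 0.1% formic acid. Detection was by quadrupole time-of-flight mass spectrometry in positive and negative ionization mode, with a dead volume of 40 μL and a dwell volume of 900 μL.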

Row | SMILES | RP-LC retention time [s]
1 | Cc1ccc(C)c(NC(=O)N2c3ccccc3CC2c2nc(C3CC3)no2)c1 (centres undefined) | 1060
2 | COc1ccc(NC(=O)c2cnc(N3CCN(C4CCCCC4)CC3)nc2N)cc1 | 631
3 | Cc1nc(Nc2ccc(F)cn2)sc1C(=O)N1CCN(c2ccccn2)CC1 | 602
4 | Cc1ccc(NC(=O)Cc2c(C)nn(-c3nc(-c4ccc(F)cc4)cs3)c2C)c(C)c1 | 1210
5 | O=C([C@@H]1C[C@H](Oc2ccccc2)CN1C(=O)c1ccco1)N1CCCC1 | 603
6 | CC(C)N1C(=O)c2cccnc2Sc2cc(C(=O)NC3CCCC3)ccc21 | 812
7 | Cc1cccc(-c2noc(Cn3c(=O)n(-c4ccc(F)cc4)c(=O)c4sccc43)n2)c1 | 1030
8 | Cc1ccc(-c2nc(-c3cccc(-c4ccnn4C)c3)no2)cc1F | 1250
9 | O=c1n(Cc2nc(-c3ccc(OC(F)(F)F)cc3)no2)nc2ccc(-c3ccccc3)nn12 | 1070
10 | CC(C)CCN1CCC(N2CCN(S(=O)(=O)c3ccc(F)cc3F)CC2)C1=O (centres undefined) | 690
11 | COc1ccc(-c2nc(C)cc(C)c2CNS(=O)(=O)c2ccccc2C)cc1 | 658
12 | Cc1cc(=O)n(CC(=O)Nc2ccc3c(c2)OCCO3)c(N2CCCCC2)n1 | 645
13 | CC(O)CNC(=O)C1CCCN(c2ccc(Sc3ccc(Br)cc3)nn2)C1 (centres undefined) | 688
14 | CN(C)S(=O)(=O)c1ccc(-c2nnc(C(=O)N3CCC4(CC3)OCCO4)o2)cc1 | 746
15 | COc1ccc(NC(=O)c2nnc(COCC(=O)NCCc3c[nH]c4ccc(C)cc34)s2)cc1 | 892
16 | COc1ccc(S(=O)(=O)NCc2cccnc2-c2ccc(C)cc2)cc1 | 679
17 | CCOC(=O)c1c(C)[nH]c(C(=O)N2CCC(CC(=O)NCc3ccccc3C)CC2)c1C | 802
18 | Cc1ccc(C(=O)N2CCC3(CC2)c2nccn2-c2ccccc2CN3CC(C)C)cc1F | 786
19 | Cn1nc(C(=O)Nc2cccc(-c3nnc4n3CCCC4)c2)c2ccccc21 | 712
20 | Cc1cc(C)c(NC(=O)C23CCC(C)(C(=O)O2)C3(C)C)c([N+](=O)[O-])c1 (centres undefined) | 884
21 | COC(=O)CCNC(=O)C1c2ccccc2C(=O)N(C2CCCC2)C12CCCCC2 (centres undefined) | 903
22 | Cc1ccc(Nc2c(-c3ccc(N(C)C)cc3)nc3cccc(C)n23)cc1 | 816
23 | O=C(NCCN1CCN(S(=O)(=O)c2ccc(C(F)(F)F)cc2)CC1)c1ccsc1 | 610

Row | SMILES | RP-LC retention time [s]
24 | O=C(Cn1nc(S(=O)(=O)c2ccc(Cl)cc2)ccc1=O)N1CCN(c2ccc(F)cc2)CC1 | 910
25 | COC[C@@H]1CN(Cc2ccc(F)c(Cl)c2)C[C@H]1c1nc(C)no1 | 580
26 | COc1cccc(-n2cc(C(=O)OCC(=O)OC(C)C)c3ccccc3c2=O)c1 | 1060
27 | CCCNC(=O)c1sc(-n2nc(C)c(Cl)c2C)nc1C | 1130
28 | O=C(Nc1cccn2nc(C3CCC3)nc12)c1cccs1 | 861
29 | COc1ccc(-c2noc(-c3c(SC)nn(CC(=O)Nc4ccccc4)c3N)n2)cc1 | 934
30 | CCN1CCN(S(=O)(=O)c2cc(-c3nc(C)cs3)n(CC(=O)N3CCCCC3)c2)CC1 | 675
31 | Cc1ccc(NC(=O)Cn2ncc3c(c2=O)N(C2CC2)C(=O)CS3)cc1C | 732
32 | O=C(Cn1c(=O)c2cccn2c2ccc(F)cc21)NCCc1c[nH]c2ccccc12 | 834
33 | O=C(CSc1nnc(NC(=O)C2CCCCC2)s1)Nc1nccs1 | 747
34 | Cc1c(Cl)cccc1-c1ccc(CNCC2CCCO2)o1 (centres undefined) | 734
35 | COc1ccc(C2CCCN2C(=O)c2cccs2)cc1 (centres undefined) | 888
36 | O=c1c2cnc3nc(-c4ccc(Cl)cc4)nn3c2ccn1CCCO | 714
37 | CC(=O)NCc1nc(-c2ccc(S(=O)(=O)N3CCC(C(=O)N4CCCC4)CC3)cc2)no1 | 639
38 | Cc1ccc(C(=O)N2C[C@@H]3C[C@H]2C[C@@H]3NS(C)(=O)=O)s1 | 595
39 | CCCNC(=O)N1CC(Oc2ccc(-c3nc(-c4ccccc4)no3)cc2)C1 | 861
40 | Cc1scc2nc(C(=O)N3CCN(C4CCCC4)CC3)nc(N3CCCC3)c12 | 550
41 | CC(C)CN1Cc2ccccc2-n2ccnc2C12CCN(C(=O)c1ccn[nH]1)CC2 | 615
42 | CC(=O)N1CCc2c([nH]c3ccccc23)C12C(=O)N(CCC(C)C)c1ccc(Br)cc12 (centres undefined) | 1040
43 | CCCc1nnc(-c2cccnc2N2CCN(C(=O)c3ccoc3)CC2)o1 | 728
44 | CC1CCC2(CC1)N=C(c1ccccc1)C(=O)N2CC(=O)Nc1ccc2c(c1)OCCO2 (centres undefined) | 1120
45 | O=C(c1cn(-c2cc(N3CCSCC3)ncn2)cn1)N1CCSCC1 | 774
46 | CCN(CC)c1nc2cc(C(=O)NCC3CC3)ccc2c(=O)n1Cc1ccccc1 | 1020

Row | SMILES | RP-LC retention time [s]
47 | Cc1ccc(C(=O)N2CCN(c3nnc4ccccn34)CC2)cc1C | 676
48 | Cc1cc2c3ccccc3ncn2n1 | 855
49 | Clc1cc(I)cc(Cl)c1NC1=NCCN1 | 655
50 | OC(COCc1ccc(Cl)cc1)CN1CCN(c2ccccn2)CC1 (centres undefined) | 567
51 | Cc1ccc(NC(=O)Nc2ccc(NC(=O)N3CCC(C(=O)NCC4CC4)CC3)cc2)cc1 | 740
52 | CCn1cc(CN2C[C@@H](COC)[C@H](c3ccccn3)C2)c(C)n1 | 573
53 | O=C(Nc1cccc(Br)c1)N1CCc2nc(-c3ccc(F)cc3)ncc2C1 | 1060
54 | CCOC(=O)c1c(C)oc(C)c(C(=O)OCC)c1=O | 780
55 | COc1cc(OC)cc(N2C=C(C#N)S(=O)(=O)c3ccc(C)cc32)c1 | 948
56 | Cc1[nH]c(C)c(S(=O)(=O)N2CCC(C(=O)Nc3ccccc3F)CC2)c1C(=O)N1CCCC1 | 720
57 | COc1ccc(-c2nnc(SCC(=O)Nc3ccc(C)cc3Br)o2)cc1 | 986
58 | COC(=O)c1c(N)n(C(C)c2ccccc2)c2nc3ccccc3nc12 (centres undefined) | 727
59 | CC(=O)N1c2ccc(S(=O)(=O)N3CCCC3)cc2CC1C(=O)NCCCc1ccccc1 (centres undefined) | 868
60 | CC1(C)CCSC(/C=C/c2ccccc2)=N1 | 690
61 | Cc1ccc(C)c(N2CCN(c3ccnc(SCC(=O)Nc4ccc(F)c(Cl)c4)n3)CC2)c1 | 997
62 | COc1ccccc1NC(=O)Cn1nc2c(Oc3cc(C)cc(C)c3)nccn2c1=O | 957
63 | Cc1ccc(-n2nc(N3CCN(C(=O)C4CC4)CC3)ccc2=O)cc1C | 749
64 | Cc1noc(C)c1CCC(=O)N1CCCn2ccnc2C1C(C)C (centres undefined) | 590
65 | CCn1cc(C)c(C(=O)O)c1CC(=O)N1CCCc2ccccc21 | 811
66 | Clc1ccc2nc(N3CCOCC3)nc(-c3ccccc3)c2c1 | 882
67 | COc1cccc(NC(=O)C2CCN(S(=O)(=O)c3ccc4c(c3)CCCN4C(C)=O)CC2)c1 | 836
68 | CS(=O)(=O)c1ccc(CC(=O)Nc2cccc3ccccc23)cc1 | 710
69 | CCOc1nc2c(c(C)nn2-c2cccc(C)c2)c(C)c1CCC(=O)N1CCN(c2ccccn2)CC1 | 910

Row | SMILES | RP-LC retention time [s]
70 | O=C(NCc1ccco1)Nc1cccc([N+](=O)[O-])c1 | 846
71 | CCC(=O)N(C1CCOCC1)C1CCN(S(=O)(=O)c2ccc(F)c(C)c2)CC1 | 836
72 | CCCCNC(=O)C1CCCN(c2ccc(-c3ccc(C)c(C)c3)nn2)C1 (centres undefined) | 735
73 | Cc1cccc(S(=O)(=O)N2CCC(n3cnnc3C3CC3)CC2)c1 | 713
74 | CN1C(=O)[C@H]2CN(Cc3ccccc3)C[C@H]2C1=O | 546
75 | COc1cc(OC)cc(C(=O)Nc2nc3c(s2)Cc2c(Br)ccc(OC)c2-3)c1 | 1210
76 | COc1cccc(CNC(=O)Cc2csc3nc(-c4cccc(Br)c4)cn23)c1 | 925
77 | COc1cc(OC)cc(-c2nnc(Cc3nc(-c4cccc(F)c4)no3)o2)c1 | 907
78 | CCN1CCN(CCNC(=O)C2CCCN(c3nc4cccnc4s3)C2)CC1 (centres undefined) | 562
79 | CSc1ccc(CNC(=O)C2CCN(c3cncnc3N3CCOCC3)CC2)cc1 | 637
80 | O=C(c1ccc2nnc(-c3ccc(Cl)cc3)n2c1)N1CCN(c2ccccn2)CC1 | 650
81 | CCCN1C(=O)C(CC(=O)NCC2CC2)Sc2ncccc21 (centres undefined) | 697
82 | COc1ccc(OC)c(C2CN(C(=O)C3CCCC3)CC2C(=O)N2CCCCC2)c1 (centres undefined) | 831
83 | CCOc1ccc2ncc(C(=O)c3ccc(OC)cc3)c(N3CCN(C)CC3)c2c1 | 599
84 | CCC(=O)N1CCc2cc(C)c(S(=O)(=O)NC(C)C)cc21 | 796
85 | CCOC(=O)c1nc(N2CCC(Cc3ccccc3)CC2)c2ccccc2n1 | 979
86 | CCc1noc(NC(C)=O)c1-c1ccc(C)c(S(=O)(=O)Nc2cc(Cl)ccc2C)c1 | 891
87 | Cc1cc(C)c2c(N3CCOCC3)nc(C(=O)N(C)Cc3ccco3)nc2n1 | 611
88 | Cc1nc(-c2ccncc2)cc2nn(CC(=O)NCc3ccccc3)c(=O)n12 | 697
89 | CCN(CC)S(=O)(=O)c1ccc2c(c1)CC(C(=O)NCCN1CCCC1)N2C(C)=O (centres undefined) | 613
